Patent publication US20230150981A1, “N-HETEROARYLALKYL-2-(HETEROCYCLYL AND HETEROCYCLYLMETHYL) ACETAMIDE DERIVATIVES AS SSTR4 AGONISTS” (Takeda Pharmaceutical Compnay Limited, priority 2020, published 2023)

Assays:
SSTR4 [1] = target: T1, SSTR4 (Homo sapiens, UniProt P31391); experiment: Inhibition of forskolin stimulated cAMP in CHO-K1 cells overexpressing SSTR4; format: cell-based; conditions: read-out: SSTR4 Activity pEC50 (converted)
T1 construct: host or cells: CHO-K1
Method in brief: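 CHO-K1 cells overexpressing SSTR4 treated 30 min at room temperature with compound in Krebs Ringer buffer containing 0.5% BSA, 300 μM IBMX and 350 nM forskolin. Intracellular cAMP measured by HTRF LANCE Ultra (665/615 nm); pEC50 values reported.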

SSTR4 [2] = target: T1, SSTR4; experiment: SSTR4 I-125 somatostatin competition binding assay (CHO-K1 membranes); conditions: competition with I-125 somatostatin, membranes from CHO-K1 overexpressing SSTR4; read-out: SSTR4 Binding pIC50 (converted)
Method in brief: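 CHO-K1 membranes overexpressing SSTR4 (1 μg/well) were incubated 60 min at room temperature with compound and I-125 somatostatin (0.2 nM in the compound mix) in 25 mM HEPES pH 7.4, 10 mM MgCl2, 1 mM CaCl2, 0.5% BSA. Bound radioligand was collected on PEI-soaked filters and scintillation-counted, with results reported as pIC50.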

SSTR1 = target: T2, SSTR1 (Homo sapiens, UniProt P30872); experiment: SSTR1 I-125 somatostatin competition binding assay for selectivity versus SSTR1 (CHO-K1 membranes); conditions: competition with I-125 somatostatin, membranes from CHO-K1 overexpressing SSTR1; read-out: SSTR1 Binding pIC50 (converted)
T2 construct: purchased Perkin Elmer ES-520-M400UA; host or cells: CHO-K1 membranes
Method in brief: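 Competition binding used 10 μg CHO-K1 SSTR1 membranes and I-125 somatostatin, 0.4 nM in the compound mix before membranes were added. Buffer was 25 mM HEPES pH 7.4, 10 mM MgCl2, 1 mM CaCl2, 0.5% BSA. After 60 min at room temperature, bound tracer was filtered onto PEI-soaked filters and counted by scintillation; values are pIC50.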

T1 sequence (P31391 whole entry): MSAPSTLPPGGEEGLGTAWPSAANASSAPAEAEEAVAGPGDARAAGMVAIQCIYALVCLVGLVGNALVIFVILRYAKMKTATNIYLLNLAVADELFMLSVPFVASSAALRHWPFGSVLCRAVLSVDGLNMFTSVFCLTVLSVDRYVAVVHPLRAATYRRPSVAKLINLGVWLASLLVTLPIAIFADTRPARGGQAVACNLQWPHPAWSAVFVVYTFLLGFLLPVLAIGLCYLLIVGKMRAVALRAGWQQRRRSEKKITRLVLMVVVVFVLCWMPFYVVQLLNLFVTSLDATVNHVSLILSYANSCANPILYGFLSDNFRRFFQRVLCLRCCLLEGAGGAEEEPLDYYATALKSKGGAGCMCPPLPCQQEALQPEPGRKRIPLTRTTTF
T2 sequence (P30872 whole entry): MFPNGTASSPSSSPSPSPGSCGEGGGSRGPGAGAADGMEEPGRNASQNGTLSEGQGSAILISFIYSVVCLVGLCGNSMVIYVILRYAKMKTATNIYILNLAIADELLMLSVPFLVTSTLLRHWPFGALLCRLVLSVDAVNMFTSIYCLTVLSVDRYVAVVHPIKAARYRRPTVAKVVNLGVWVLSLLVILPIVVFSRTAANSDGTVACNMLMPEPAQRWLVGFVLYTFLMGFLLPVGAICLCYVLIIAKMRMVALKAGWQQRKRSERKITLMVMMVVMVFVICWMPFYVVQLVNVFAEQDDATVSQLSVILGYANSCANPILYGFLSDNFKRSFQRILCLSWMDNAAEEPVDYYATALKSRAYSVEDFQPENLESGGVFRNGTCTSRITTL

Compound `CN1CCCC1CC(=O)NC(C)(C)c1nccc2ccccc12` (stereo not drawn) [Example 203, N-(2-(isoquinolin-1-yl)propan-2-yl)-2-(1-methylpyrrolidin-2-yl)acetamide] has an EC50 (SSTR4 [1]) of 3.98 nM, an IC50 (SSTR4 [2]) of 158 nM and an IC50 (SSTR1) of 3980 nM.

`CC[C@@H](CN1CCC1)C(=O)N[C@H](c1ccc(F)cc1)C(F)F` [Example 204, (S)-2-(azetidin-1-ylmethyl)-N-((R)-2,2-difluoro-1-(4-fluorophenyl)ethyl)butanamide] gave an EC50 (SSTR4 [1]) of 0.1 nM, an IC50 (SSTR4 [2]) of 3.16 nM and an IC50 (SSTR1) of 631 nM.
